In patent US9242970B2 (ACTELION PHARMACEUTICALS LTD., priority 2010, dated 2016) one finds IC50 data, which are given here for 34 compounds.

Molecules are shown by their SMILES. Where two headings read alike, the source gives them in different places.

One test addresses human orexin-1 receptor (Homo sapiens (Human), UniProt O43613). The test is described as follows: In vitro assay: intracellular calcium measurements (FLIPR), antagonistic activity. Type of test: cell-based. As to conditions: CHO cells, 3 nM orexin-A, marked values are geometric means of n = 2-6, read-out: IC50 OX1. Background: Calcium assays in cells follow changes in intracellular calcium, usually with a dye or a luminescent sensor.

The target in a further test is human orexin-2 receptor (Homo sapiens (Human), UniProt O43614). The description is as above. Type of test: cell-based. As to conditions: CHO cells, 3 nM orexin-A, marked values are geometric means of n = 2-6, read-out: IC50 OX2.
human orexin-2 receptor, sequence (O43614 whole entry): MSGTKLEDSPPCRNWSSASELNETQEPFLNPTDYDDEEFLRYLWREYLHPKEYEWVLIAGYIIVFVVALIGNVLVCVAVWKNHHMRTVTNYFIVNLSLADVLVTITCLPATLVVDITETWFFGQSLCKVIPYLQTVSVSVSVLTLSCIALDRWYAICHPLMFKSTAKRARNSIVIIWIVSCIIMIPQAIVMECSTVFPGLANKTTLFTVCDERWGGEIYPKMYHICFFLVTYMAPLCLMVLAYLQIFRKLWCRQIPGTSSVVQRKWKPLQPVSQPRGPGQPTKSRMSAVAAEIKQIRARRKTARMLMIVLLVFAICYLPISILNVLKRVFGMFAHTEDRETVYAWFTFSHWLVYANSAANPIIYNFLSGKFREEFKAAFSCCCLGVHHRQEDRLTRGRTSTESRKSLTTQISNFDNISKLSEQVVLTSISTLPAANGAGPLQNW
Setting [1] is: compound incubation time of 10 min.

human orexin-1 receptor, sequence (O43613 whole entry): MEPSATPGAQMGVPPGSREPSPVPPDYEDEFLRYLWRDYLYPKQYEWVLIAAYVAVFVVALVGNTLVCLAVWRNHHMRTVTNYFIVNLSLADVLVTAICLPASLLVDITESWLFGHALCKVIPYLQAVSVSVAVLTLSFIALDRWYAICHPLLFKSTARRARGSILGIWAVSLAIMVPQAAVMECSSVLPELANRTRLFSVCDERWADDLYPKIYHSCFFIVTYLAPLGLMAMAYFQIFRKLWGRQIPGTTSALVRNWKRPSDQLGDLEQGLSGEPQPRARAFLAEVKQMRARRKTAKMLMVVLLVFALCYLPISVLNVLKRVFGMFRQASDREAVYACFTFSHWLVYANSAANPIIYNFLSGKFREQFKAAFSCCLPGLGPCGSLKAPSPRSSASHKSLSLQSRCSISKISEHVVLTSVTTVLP

Usually IC50 stands for the midpoint of a concentration-inhibition curve. On to `COc1cccc(OC)c1C1CCCC(=O)N1Cc1ccc2oc(C)nc2c1` (centres unmarked) [Example 249, 6-(2,6-dimethoxyphenyl)-1-((2-methylbenzo[d]oxazol-5-yl)methyl)piperidin-2-one], for which the 50% inhibitory concentration (IC50) on human orexin-1 receptor (compound incubation 120 min) was 334 nM; on human orexin-2 receptor (compound incubation 120 min), 223 nM.

Regarding `COc1cccc(OC)c1C1CCCC(=O)N1Cc1ccc2sccc2c1` (centres unmarked) [Example 250, 1-(benzo[b]thiophen-5-ylmethyl)-6-(2,6-dimethoxyphenyl)piperidin-2-one], the half-maximal inhibitory concentration (IC50) at human orexin-1 receptor (setting [1]) is 204 nM; on human orexin-2 receptor (setting [1]), 140 nM.

In the case of `CCOc1ccccc1C1CCCC(=O)N1Cc1ccc(OC(F)(F)F)cc1` (centres unmarked) [Example 251, 6-(2-ethoxyphenyl)-1-(4-(trifluoromethoxy)benzyl)piperidin-2-one], the IC50 on human orexin-1 receptor (setting [1]) worked out at 4070 nM; on human orexin-2 receptor (setting [1]), 426 nM.

Take `O=C1CCCC(c2ccccc2OC(F)(F)F)N1Cc1ccc(OC(F)(F)F)cc1` (centres unmarked) [Example 252, 1-(4-(trifluoromethoxy)benzyl)-6-(2-(trifluoromethoxy)phenyl)piperidin-2-one]: the results for the IC50 on human orexin-1 receptor (setting [1]) and at human orexin-2 receptor (setting [1]) were 9370 nM and 2660 nM, respectively.

Regarding `COc1cccc(OC)c1C1CC(F)(F)C(=O)N1Cc1ccc(OC(F)(F)F)cc1` (centres unmarked) [Example 256, 5-(2,6-dimethoxyphenyl)-3,3-difluoro-1-(4-(trifluoromethoxy)benzyl)pyrrolidin-2-one], the IC50 was determined as 193 nM at human orexin-1 receptor (setting [1]) and 133 nM at human orexin-2 receptor (setting [1]).

With `COc1cccc(OC)c1C1COCC(=O)N1Cc1ccc(OC(F)(F)F)cc1` (centres unmarked) [Example 266, 5-(2,6-dimethoxyphenyl)-4-(4-(trifluoromethoxy)benzyl)morpholin-3-one], the IC50 on human orexin-1 receptor (setting [1]) stood at 412 nM; at human orexin-2 receptor (setting [1]), 86 nM.

For the compound `COc1cccc(OC)c1C1CNCC(=O)N1Cc1ccc(OC(F)(F)F)cc1` (centres unmarked) [Example 267, 6-(2,6-dimethoxyphenyl)-1-(4-(trifluoromethoxy)benzyl)piperazin-2-one], the IC50 is 2680 nM on human orexin-1 receptor (setting [1]) and 589 nM on human orexin-2 receptor (setting [1]).

Regarding `COc1cccc(OC)c1C1CN(C)CC(=O)N1Cc1ccc(OC(F)(F)F)cc1` (centres unmarked) [Example 268, 6-(2,6-dimethoxyphenyl)-4-methyl-1-(4-(trifluoromethoxy)benzyl)piperazin-2-one], the IC50 at human orexin-1 receptor (setting [1]) was determined as 1270 nM; on human orexin-2 receptor (setting [1]) it was 410 nM.

In the case of `COc1ncnc(OC)c1C1CCCC(=O)N1Cc1cccc(-c2csc(C)n2)c1` (centres unmarked) [Example 269, 6-(4,6-dimethoxypyrimidin-5-yl)-1-(3-(2-methylthiazol-4-yl)benzyl)piperidin-2-one], the IC50 came out at 1030 nM at human orexin-1 receptor (compound incubation 120 min) and 619 nM at human orexin-2 receptor (compound incubation 120 min).

In the case of `COc1ncnc(OC)c1C1CCCC(=O)N1Cc1cccc(-c2ccccc2)c1` (centres unmarked) [Example 270, 1-([1,1′-biphenyl]-3-ylmethyl)-6-(4,6-dimethoxypyrimidin-5-yl)piperidin-2-one], the IC50 on human orexin-1 receptor (compound incubation 120 min) amounted to 568 nM; at human orexin-2 receptor (compound incubation 120 min), 412 nM.

In the case of `COc1ncnc(OC)c1C1CCCC(=O)N1Cc1csc(-c2ccccc2)n1` (centres unmarked) [Example 271, 6-(4,6-dimethoxypyrimidin-5-yl)-1-((2-phenylthiazol-4-yl)methyl)piperidin-2-one], the IC50 at human orexin-1 receptor (compound incubation 120 min) came to 5690 nM; on human orexin-2 receptor (compound incubation 120 min) it was 256 nM.

Turning to `Cc1nc(-c2cccc(CN3C(=O)CCCC3c3cccc4c3OCCO4)c2)cs1` (centres unmarked) [Example 272, 6-(2,3-dihydrobenzo[b][1,4]dioxin-5-yl)-1-(3-(2-methylthiazol-4-yl)benzyl)piperidin-2-one], the figures for the IC50 at human orexin-1 receptor (compound incubation 120 min) and at human orexin-2 receptor (compound incubation 120 min) were 510 nM and 229 nM, respectively.

As for `O=C1CCCC(c2cccc3c2OCCO3)N1Cc1cccc(-c2ccccc2)c1` (centres unmarked) [Example 273, 1-([1,1′-biphenyl]-3-ylmethyl)-6-(2,3-dihydrobenzo[b][1,4]dioxin-5-yl)piperidin-2-one], the results for the IC50 at human orexin-1 receptor (compound incubation 120 min) and at human orexin-2 receptor (compound incubation 120 min) were 795 nM and 296 nM, respectively.

With `COc1cncc(OC)c1C1CCCCC(=O)N1Cc1cccc(-c2csc(C)n2)c1` (centres unmarked) [Example 274, 7-(3,5-dimethoxypyridin-4-yl)-1-(3-(2-methylthiazol-4-yl)benzyl)azepan-2-one], the results for the IC50 on human orexin-1 receptor (compound incubation 120 min) and on human orexin-2 receptor (compound incubation 120 min) were 23 nM and 64 nM, respectively.

With `COc1cncc(OC)c1C1CCCCC(=O)N1Cc1cccc(-c2ccccc2)c1` (centres unmarked) [Example 275, 1-([1,1′-biphenyl]-3-ylmethyl)-7-(3,5-dimethoxypyridin-4-yl)azepan-2-one], the IC50 is 50 nM on human orexin-1 receptor (compound incubation 120 min) and 80 nM on human orexin-2 receptor (compound incubation 120 min).

On to `COc1cncc(OC)c1C1CCCCC(=O)N1Cc1ccc2c(c1)c1ccccc1n2C` (centres unmarked) [Example 276, 7-(3,5-dimethoxypyridin-4-yl)-1-((9-methyl-9H-carbazol-3-yl)methyl)azepan-2-one], for which the IC50 came to 347 nM on human orexin-1 receptor (compound incubation 120 min) and 222 nM at human orexin-2 receptor (compound incubation 120 min).

Regarding `COc1cncc(OC)c1C1CCCCC(=O)N1Cc1csc(-c2ccccc2)n1` (centres unmarked) [Example 277, 7-(3,5-dimethoxypyridin-4-yl)-1-((2-phenylthiazol-4-yl)methyl)azepan-2-one], the IC50 was determined as 214 nM on human orexin-1 receptor (compound incubation 120 min) and 182 nM on human orexin-2 receptor (compound incubation 120 min).

Take `COc1cccc(OC)c1C1CCCC(=O)N1Cc1csc(Oc2ccccc2)n1` (centres unmarked) [Example 278, 6-(2,6-dimethoxyphenyl)-1-((2-phenoxythiazol-4-yl)methyl)piperidin-2-one]: the IC50 at human orexin-1 receptor (compound incubation 120 min) was determined as 250 nM; on human orexin-2 receptor (compound incubation 120 min), 172 nM.

For `COc1ccc2nc(C)oc2c1C1CCCC(=O)N1Cc1ccc2ccccc2n1` (centres unmarked) [Example 279, 6-(6-methoxy-2-methylbenzo[d]oxazol-7-yl)-1-(quinolin-2-ylmethyl)piperidin-2-one], the figures for the IC50 on human orexin-1 receptor (compound incubation 120 min) and on human orexin-2 receptor (compound incubation 120 min) were 623 nM and 1030 nM, respectively.

With `COc1ccc2ncoc2c1C1CCCC(=O)N1Cc1ccc2ccccc2n1` (centres unmarked) [Example 280, 6-(6-methoxybenzo[d]oxazol-7-yl)-1-(quinolin-2-ylmethyl)piperidin-2-one], the IC50 was 1820 nM at human orexin-1 receptor (compound incubation 120 min) and 1800 nM on human orexin-2 receptor (compound incubation 120 min).

In the case of `COc1ccc(Cl)c(OC)c1C1CCCC(=O)N1Cc1cccc(-c2csc(C)n2)c1` (centres unmarked) [Example 281, 6-(3-chloro-2,6-dimethoxyphenyl)-1-(3-(2-methylthiazol-4-yl)benzyl)piperidin-2-one], the IC50 on human orexin-1 receptor (compound incubation 120 min) came out at 42 nM; on human orexin-2 receptor (compound incubation 120 min), 115 nM.

Turning to `COc1cccc(OC)c1C1CCC(=O)N1Cc1ccc(Oc2nccs2)cc1` (centres unmarked) [Example 282, 5-(2,6-dimethoxyphenyl)-1-(4-(thiazol-2-yloxy)benzyl)pyrrolidin-2-one], the IC50 came to 139 nM at human orexin-1 receptor (compound incubation 120 min) and 213 nM on human orexin-2 receptor (compound incubation 120 min).

Regarding `Cc1nc(-c2cccc(CN3C(=O)CCCC3c3ccccc3-c3ccccc3)c2)cs1` (centres unmarked) [Example 283, 6-([1,1′-biphenyl]-2-yl)-1-(3-(2-methylthiazol-4-yl)benzyl)piperidin-2-one], the results for the IC50 on human orexin-1 receptor (compound incubation 120 min) and on human orexin-2 receptor (compound incubation 120 min) were 275 nM and 548 nM, respectively.

`O=C1CCCC(c2ccccc2-c2ccccc2)N1Cc1cccc(-c2ccccc2)c1` (centres unmarked) [Example 284, 6-([1,1′-biphenyl]-2-yl)-1-([1,1′-biphenyl]-3-ylmethyl)piperidin-2-one]: the IC50 is 1450 nM at human orexin-1 receptor (compound incubation 120 min) and 722 nM on human orexin-2 receptor (compound incubation 120 min).

Regarding `O=C1CCC(c2ccccc2-c2ccccc2)N1Cc1cccc(-c2ccccc2)c1` (centres unmarked) [Example 285, 5-([1,1′-biphenyl]-2-yl)-1-([1,1′-biphenyl]-3-ylmethyl)pyrrolidin-2-one], the IC50 on human orexin-1 receptor (compound incubation 120 min) was 243 nM; at human orexin-2 receptor (compound incubation 120 min), 533 nM.

Regarding `Cc1nc(-c2cccc(CN3C(=O)CCC3c3ccccc3-c3ccccc3)c2)cs1` (centres unmarked) [Example 286, 5-([1,1′-biphenyl]-2-yl)-1-(3-(2-methylthiazol-4-yl)benzyl)pyrrolidin-2-one], the IC50 on human orexin-1 receptor (compound incubation 120 min) was 104 nM; on human orexin-2 receptor (compound incubation 120 min), 462 nM.

Consider `O=C1CCC(c2ccccc2-c2ccccc2)N1Cc1ccc(OC(F)(F)F)cc1` (centres unmarked) [Example 287, 5-([1,1′-biphenyl]-2-yl)-1-(4-(trifluoromethoxy)benzyl)pyrrolidin-2-one], for which the IC50 at human orexin-1 receptor (compound incubation 120 min) stood at 922 nM; on human orexin-2 receptor (compound incubation 120 min) it was 585 nM.

Turning to `O=C1CCC(c2ccccc2-c2ccccc2)N1Cc1csc(-c2ccccc2)n1` (centres unmarked) [Example 288, 5-([1,1′-biphenyl]-2-yl)-1-((2-phenylthiazol-4-yl)methyl)pyrrolidin-2-one], the IC50 on human orexin-1 receptor (compound incubation 120 min) came out at 825 nM; on human orexin-2 receptor (compound incubation 120 min), 1370 nM.

`CC1CC(c2ccccc2-c2ccccc2)N(Cc2cccc(-c3ccccc3)c2)C1=O` (centres unmarked) [Example 289, 5-([1,1′-biphenyl]-2-yl)-1-([1,1′-biphenyl]-3-ylmethyl)-3-methylpyrrolidin-2-one]: the half-inhibitory concentration (IC50) came to 420 nM on human orexin-1 receptor (compound incubation 120 min) and 596 nM at human orexin-2 receptor (compound incubation 120 min).

In the case of `Cc1nc(-c2cccc(CN3C(=O)C(C)CC3c3ccccc3-c3ccccc3)c2)cs1` (centres unmarked) [Example 290, 5-([1,1′-biphenyl]-2-yl)-3-methyl-1-(3-(2-methylthiazol-4-yl)benzyl)pyrrolidin-2-one], the IC50 on human orexin-1 receptor (compound incubation 120 min) was determined as 103 nM; on human orexin-2 receptor (compound incubation 120 min), 455 nM.

As for `CC1CC(c2ccccc2-c2ccccc2)N(Cc2ccc(OC(F)(F)F)cc2)C1=O` (centres unmarked) [Example 291, 5-([1,1′-biphenyl]-2-yl)-3-methyl-1-(4-(trifluoromethoxy)benzyl)pyrrolidin-2-one], the IC50 at human orexin-1 receptor (compound incubation 120 min) was found to be 2050 nM; at human orexin-2 receptor (compound incubation 120 min) it was 457 nM.

Take `COc1cccc(OC)c1C1CCC(=O)N1Cc1ccc(Oc2nc(C)cs2)cc1` (centres unmarked) [Example 292, 5-(2,6-dimethoxyphenyl)-1-(4-((4-methylthiazol-2-yl)oxy)benzyl)pyrrolidin-2-one]: the figures for the concentration for half-maximal inhibition (IC50) on human orexin-1 receptor (compound incubation 120 min) and on human orexin-2 receptor (compound incubation 120 min) were 214 nM and 125 nM, respectively.

Take `COc1cccc(OC)c1C1CC(F)(F)C(=O)N1Cc1cccc(-c2ccccc2)c1` (centres unmarked) [Example 336, 1-([1,1′-biphenyl]-3-ylmethyl)-5-(2,6-dimethoxyphenyl)-3,3-difluoropyrrolidin-2-one]: the figures for the IC50 at human orexin-1 receptor (compound incubation 120 min) and at human orexin-2 receptor (compound incubation 120 min) were 16 nM and 81 nM, respectively.

In the case of `CCOc1cccc(OC)c1C1CC(F)(F)C(=O)N1Cc1cccc(-c2ccccc2)c1` (centres unmarked) [Example 337, 1-([1,1′-biphenyl]-3-ylmethyl)-5-(2-ethoxy-6-methoxyphenyl)-3,3-difluoropyrrolidin-2-one], the IC50 at human orexin-1 receptor (compound incubation 120 min) came out at 12 nM; on human orexin-2 receptor (compound incubation 120 min) it was 63 nM.
